Assay results as given in ChEMBL document CHEMBL5537134, “Targeting the pyruvate dehydrogenase complex/pyruvate dehydrogenase kinase (PDC/PDK) axis to discover potent PDK inhibitors through structure-based virtual screening and pharmacological evaluation” (Eur J Med Chem, 2024).
Calls of active or inactive are those of the source. The rule behind the calls is not given here.

Columns and labels:
[1] = molecular target: T1, [Pyruvate dehydrogenase (acetyl-transferring)] kinase isozyme 1, mitochondrial (Homo sapiens, UniProt Q15118); experiment: Inhibition of 6His-tagged full length PDK1 (unknown origin) expressed in Escherichia coli in presence of ATP by ELISA based kinase activity assay
T1 sequence (Q15118 whole entry): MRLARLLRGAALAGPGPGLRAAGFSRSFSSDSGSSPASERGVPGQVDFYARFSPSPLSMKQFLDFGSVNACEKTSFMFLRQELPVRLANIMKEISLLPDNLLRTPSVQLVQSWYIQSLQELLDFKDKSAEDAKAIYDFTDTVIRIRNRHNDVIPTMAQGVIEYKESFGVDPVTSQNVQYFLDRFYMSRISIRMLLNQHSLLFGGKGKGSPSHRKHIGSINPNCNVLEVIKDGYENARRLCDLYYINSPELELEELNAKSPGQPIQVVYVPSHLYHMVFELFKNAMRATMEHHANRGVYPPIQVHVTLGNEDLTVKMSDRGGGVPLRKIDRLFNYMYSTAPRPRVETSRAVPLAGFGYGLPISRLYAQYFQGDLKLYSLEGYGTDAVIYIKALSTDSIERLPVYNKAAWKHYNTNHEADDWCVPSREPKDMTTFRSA

[2] = tested on: A549; experiment: Antiproliferative activity against human A549 cells assessed as reduction in cell viability incubated for 72 hrs by CCK8 assay; format: functional, cell-based; conditions: A549, 72 h
[3] = Toxicity in Balb/c mouse assessed as pathological abnormality in liver at 50 mg/kg, ip administered for 7 days by hematoxylin and eosin staining based analysis; format: organism-based; conditions: in vivo, 168 h, time 7 day
[4] = Toxicity in Balb/c mouse assessed as pathological abnormality in lung at 50 mg/kg, ip administered for 7 days by hematoxylin and eosin staining based analysis; format: organism-based; conditions: in vivo, 168 h, time 7 day
[5] = Toxicity in Balb/c mouse assessed as pathological abnormality in spleen at 50 mg/kg, ip administered for 7 days by hematoxylin and eosin staining based analysis; format: organism-based; conditions: in vivo, 168 h, time 7 day
[6] = Toxicity in Balb/c mouse assessed as pathological abnormality in heart at 50 mg/kg, ip administered for 7 days by hematoxylin and eosin staining based analysis; format: organism-based; conditions: in vivo, 168 h, time 7 day
[7] = Toxicity in Balb/c mouse assessed as death at 50 mg/kg, ip administered for 7 days; format: organism-based; conditions: in vivo, 168 h, time 7 day
[8] = Toxicity in Balb/c mouse assessed as change in body weight at 50 mg/kg, ip administered for 7 days; format: organism-based; conditions: in vivo, 168 h, time 7 day
[9] = tested on: A549; experiment: Antiproliferative activity against human A549 cells assessed as reduction in cell viability at 40 uM incubated for 72 hrs by MTT assay; format: functional, cell-based
[10] = molecular target: [Pyruvate dehydrogenase (acetyl-transferring)] kinase isozyme 2, mitochondrial (Homo sapiens, UniProt Q15119); experiment: Inhibition of recombinant full length human PDK2 (1 to 407 residues) expressed in baculovirus infected Sf9 cells using PDHA1 as substrate incubated for 1 hrs in presence of ATP by ADP-Glo luminescence assay
[11] = tested on: A549; experiment: Anticancer activity against human A549 cells assessed as inhibition of cell growth at 20 uM by IncuCyte Zoom live cell imaging analysis; format: functional, cell-based; conditions: time 24-72 hrs, TDE = time-dependent effect
[12] = tested on: A549; experiment: Antiproliferative activity against human A549 cells assessed as reduction in cell viability incubated for 72 hrs under hypoxic condition by MTT assay; conditions: A549, 72 h
[13] = tested on: BEAS-2B; experiment: Cytotoxicity against human BEAS-2B cells assessed as reduction in cell viability upto 50 uM incubated for 72 hrs by MTT assay; format: toxicity, cell-based
[14] = tested on: A549; experiment: Induction of cell cycle arrest in human A549 cells assessed as accumulation of cells at G2 phase at 7.5 uM incubated for 24 hrs by Propidium Iodide staining based flow cytometry analysis (reference value: 13.19 %); format: functional
[15] = tested on: A549; experiment: Induction of cell cycle arrest in human A549 cells assessed as accumulation of cells at S phase at 7.5 uM incubated for 24 hrs by Propidium Iodide staining based flow cytometry analysis (reference value: 36.92 %); format: functional
[16] = tested on: A549; experiment: Induction of cell cycle arrest in human A549 cells assessed as accumulation of cells at G1 phase at 7.5 uM incubated for 24 hrs by Propidium Iodide staining based flow cytometry analysis (reference value: 49.88 %); format: functional
[17] = tested on: A549; experiment: Induction of cell cycle arrest in human A549 cells assessed as accumulation of cells at G2 phase at 5 uM incubated for 24 hrs by Propidium Iodide staining based flow cytometry analysis (reference value: 13.19 %); format: functional
[18] = tested on: A549; experiment: Induction of cell cycle arrest in human A549 cells assessed as accumulation of cells at S phase at 5 uM incubated for 24 hrs by Propidium Iodide staining based flow cytometry analysis (reference value: 36.92 %); format: functional
[19] = tested on: A549; experiment: Induction of cell cycle arrest in human A549 cells assessed as accumulation of cells at G1 phase at 5 uM incubated for 24 hrs by Propidium Iodide staining based flow cytometry analysis (reference value: 49.88 %); format: functional
[20] = tested on: A549; experiment: Induction of cell cycle arrest in human A549 cells assessed as accumulation of cells at G2 phase at 10 uM incubated for 24 hrs by Propidium Iodide staining based flow cytometry analysis (reference value: 13.19 %); format: functional
[21] = tested on: A549; experiment: Induction of cell cycle arrest in human A549 cells assessed as accumulation of cells at S phase at 10 uM incubated for 24 hrs by Propidium Iodide staining based flow cytometry analysis (reference value: 36.92 %); format: functional
[22] = tested on: A549; experiment: Induction of cell cycle arrest in human A549 cells assessed as accumulation of cells at G1 phase at 10 uM incubated for 24 hrs by Propidium Iodide staining based flow cytometry analysis (reference value: 49.88 %); format: functional
[23] = tested on: A549; experiment: Induction of apoptosis in human A549 cells at 20 uM by Annexin V-FITC/Propidium Iodide staining based flow cytometry analysis; format: functional, cell-based; conditions: time 12-48 hrs, TDE = time-dependent effect
[24] = tested on: A549; experiment: Induction of apoptosis in human A549 cells at 20 uM incubated for 24 hrs by Annexin V-FITC/Propidium Iodide staining based flow cytometry analysis relative to control; format: functional
[25] = tested on: A549; experiment: Induction of apoptosis in human A549 cells incubated for 48 hrs by Annexin V-FITC/Propidium Iodide staining based flow cytometry analysis; format: functional, cell-based; conditions: dose 5-20 µM
[26] = tested on: A549; experiment: Induction of apoptosis in human A549 cells at 20 uM incubated for 12 hrs by Annexin V-FITC/Propidium Iodide staining based flow cytometry analysis relative to control; format: functional
[27] = tested on: A549; experiment: Induction of apoptosis in human A549 cells assessed as apoptotic cells at 20 uM incubated for 48 hrs by Annexin V-FITC/Propidium Iodide staining based flow cytometry analysis relative to control; format: functional
[28] = tested on: A549; experiment: Induction of apoptosis in human A549 cells assessed as apoptotic cells at 10 uM incubated for 48 hrs by Annexin V-FITC/Propidium Iodide staining based flow cytometry analysis relative to control; format: functional
[29] = tested on: A549; experiment: Induction of apoptosis in human A549 cells assessed as apoptotic cells at 5 uM incubated for 48 hrs by Annexin V-FITC/Propidium Iodide staining based flow cytometry analysis relative to control; format: functional
[30] = Toxicity in Balb/c mouse assessed as pathological abnormality in kidney at 50 mg/kg, ip administered for 7 days by hematoxylin and eosin staining based analysis; format: organism-based; conditions: in vivo, 168 h, time 7 day
[31] = tested on: Cell membrane; experiment: Induction of mitochondrial membrane depolarization in human A549 cells assessed as decrease in lactate formation incubated for 8 hrs by NovaBioprofile Flex analyzer method; format: cell membranes; conditions: dose 10-40 µM
[32] = tested on: Cell membrane; experiment: Induction of mitochondrial membrane depolarization in human A549 cells assessed as decrease in extracellular acidification by Seahorse XFe96 extracellular flux analyzer method; format: cell membranes; conditions: dose 10-40 µM
[33] = tested on: Cell membrane; experiment: Induction of mitochondrial membrane depolarization in human A549 cells assessed as increase in oxygen consumption rate by Seahorse XFe96 extracellular flux analyzer method; format: cell membranes; conditions: dose 10-40 µM
[34] = tested on: Cell membrane; experiment: Induction of mitochondrial membrane depolarization in human A549 cells assessed as increase in green fluorescence intensity at 5 to 20 uM incubated for 4 hrs by JC-1 staining based laser scanning confocal microscope analysis; format: cell membranes; conditions: dose 5-20 µM
[35] = tested on: Cell membrane; experiment: Induction of mitochondrial membrane depolarization in human A549 cells assessed as increase in JC-1 monomer incubated for 4 hrs by JC-1 staining based flow cytometry analysis; format: cell membranes; conditions: dose 5-20 µM
[36] = tested on: Cell membrane; experiment: Induction of mitochondrial membrane depolarization in human A549 cells assessed as disappearance of red fluorescence at 5 to 20 uM incubated for 4 hrs by TMRM staining based laser scanning confocal microscope analysis; format: cell membranes; conditions: dose 5-20 µM
[37] = Toxicity in Balb/c mouse assessed as clinical signs at 50 mg/kg, ip administered for 7 days; format: organism-based; conditions: in vivo, 168 h, time 7 day
[38] = tested on: A549; experiment: cells; conditions: Homo sapiens
Description: Anticancer activity against human A549 cells assessed as inhibition of cell growth incubated for 24 to 72 hrs by IncuCyte Zoom live cell imaging analysis

[39] = molecular target: T1, [Pyruvate dehydrogenase (acetyl-transferring)] kinase isozyme 1, mitochondrial; experiment: Inhibition of recombinant full-length human PDK1 (1 to 436 residues) expressed in baculovirus infected Sf9 insect cells using PDHA1 as substrate at 10 uM incubated for 1 hrs in presence of ATP by Kinase-Glo luminescence assay
[40] = molecular target: T1, [Pyruvate dehydrogenase (acetyl-transferring)] kinase isozyme 1, mitochondrial; experiment: Binding affinity to PDK1 (unknown origin) assessed as dissociation constant
[41] = molecular target: T1, [Pyruvate dehydrogenase (acetyl-transferring)] kinase isozyme 1, mitochondrial; experiment: Binding affinity to PDK1 (unknown origin) assessed as dissociation constant in presence of 5-((4-chlorophenyl)sulfonamido)-N-(2-hydroxyethyl)-2,4-dimethylbenzenesulfonamide
[42] = molecular target: T1, [Pyruvate dehydrogenase (acetyl-transferring)] kinase isozyme 1, mitochondrial; experiment: Inhibition of recombinant full-length human PDK1 (1 to 436 residues) expressed in baculovirus infected Sf9 insect cells using PDHA1 as substrate incubated for 1 hrs in presence of ATP by Kinase-Glo luminescence assay
[43] = tested on: A549; experiment: Anticancer activity against human A549 cells assessed as reduction in cell growth at 20 uM by IncuCyte Zoom live cell imaging analysis; format: functional, cell-based

S=C(SSC(=S)N1CCOCC1)N1CCOCC1
EC50 [1]: 49 nM | IC50 [2]: < 500 nM

Cc1cc(C)c(S(=O)(=O)NCCO)cc1NS(=O)(=O)c1ccc(Cl)cc1
Activity [3]: Non-Toxic | Activity [4]: Non-Toxic | Activity [5]: Non-Toxic | Activity [6]: Non-Toxic | Activity [7]: Non-Toxic | Activity [8]: Non-Toxic | Activity [9]: Active | IC50 [10]: 136 nM | Activity [11]: Tde | IC50 [12]: 5670 nM | Activity [13]: Non-Toxic | Activity [14]: 7.98% | Activity [15]: 42.37% | Activity [16]: 49.65% | Activity [17]: 12.31% | Activity [18]: 32.44% | Activity [19]: 55.25% | Activity [20]: 1.58% | Activity [21]: 50.66% | Activity [22]: 47.77% | Activity [23]: Tde | Activity [24]: 60% | Activity [25]: Dose-Dependent Effect | Activity [26]: 10.8% | Activity [27]: 80.5% | Activity [28]: 23.8% | Activity [29]: 8.8% | Activity [30]: Non-Toxic | Activity [31]: Dose-Dependent Effect | Activity [32]: Dose-Dependent Effect | Activity [33]: Dose-Dependent Effect | Activity [34]: Active | Activity [35]: Dose-Dependent Effect | Activity [36]: Active | Activity [37]: Non-Toxic | EC50 [38]: 10700 nM

CC(C)[C@H](NC(=O)N1CCN(C(c2ccc(F)cc2)c2ccc(F)cc2)CC1)C(=O)O
Activity [9]: Active

O=C(c1cccc(S(=O)(=O)Nc2cc(Cl)ccc2Cl)c1)N1CCN(CCO)CC1
inhibition [39]: Active

CN(C)C(=O)c1ccc(S(=O)(=O)c2ccc(NC(=O)[C@@](C)(O)C(F)(F)F)c(Cl)c2)cc1
Kd [40]: 148 nM | Kd [41]: 8900 nM | IC50 [42]: 32.3 nM | IC50 [10]: 74.5 nM | Activity [43]: inactive | Activity [20]: 13.47% | Activity [21]: 18.03% | Activity [22]: 68.5%
